Columns and labels:
Test in all cases: relative viability (nuclei count vs DMSO), 5 days (fraction); higher = more cells survive
[1] = compound: O=C(NCCCNc1nc(Nc2cccc(NC(=O)N3CCCC3)c2)ncc1I)c1cccs1 [BX 795] + CS(=O)(=O)N1CCN(Cc2cc3nc(-c4cccc5[nH]ncc45)nc(N4CCOCC4)c3s2)CC1 [Pictilisib] (partner 1 µM)
Procedure, shortened: (§1)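 Lung cancer cell lines, seeded in 1536-well plates, were treated the following day by pin tool with a single drug or with five library-drug doses (not always all listed) in √10 steps on top of a fixed anchor-drug dose. Cells were fixed and nuclei stained in one step after 5 days, and nuclei were counted. Relative viability is the nuclei count for treated wells divided by that for vehicle wells, reported as medians of duplicate plates.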

[2] = compound: O=C(NCCCNc1nc(Nc2cccc(NC(=O)N3CCCC3)c2)ncc1I)c1cccs1 [BX 795] + COc1cccc2cc(-c3nc([C@H]4CC[C@H](C(=O)O)CC4)n4ncnc(N)c34)[nH]c12 [OSI-027] (partner 0.5 µM)
Procedure, shortened: as §1

[3] = compound: O=C(NCCCNc1nc(Nc2cccc(NC(=O)N3CCCC3)c2)ncc1I)c1cccs1 [BX 795] + N=C(N)NC(=N)NCCc1ccccc1 [Phenformin] (partner 250 µM)
Procedure, shortened: as §1

[4] = compound: O=C(NCCCNc1nc(Nc2cccc(NC(=O)N3CCCC3)c2)ncc1I)c1cccs1 [BX 795] + O=C(c1cc(Cc2n[nH]c(=O)c3ccccc23)ccc1F)N1CCN(C(=O)C2CC2)CC1 [Olaparib] (partner 8 µM)
Procedure, shortened: as §1

[5] = compound: O=C(NCCCNc1nc(Nc2cccc(NC(=O)N3CCCC3)c2)ncc1I)c1cccs1 [BX 795] + CCNC(=O)c1noc(-c2cc(C(C)C)c(O)cc2O)c1-c1ccc(CN2CCOCC2)cc1 [Luminespib] (partner 0.01 µM)
Procedure, shortened: as §1

Cell Line	relative viability ([1]; first compound 0.04 µM)	relative viability ([1]; first compound 0.1265 µM)	relative viability ([1]; first compound 0.4 µM)	relative viability ([1]; first compound 1.265 µM)	relative viability ([2]; first compound 0.04 µM)	relative viability ([2]; first compound 0.1265 µM)	relative viability ([2]; first compound 0.4 µM)	relative viability ([2]; first compound 1.265 µM)	relative viability ([3]; first compound 0.04 µM)	relative viability ([3]; first compound 0.1265 µM)	relative viability ([3]; first compound 0.4 µM)	relative viability ([3]; first compound 1.265 µM)	relative viability ([4]; first compound 0.04 µM)	relative viability ([4]; first compound 0.1265 µM)	relative viability ([4]; first compound 0.4 µM)	relative viability ([4]; first compound 1.265 µM)	relative viability ([5]; first compound 0.04 µM)	relative viability ([5]; first compound 0.1265 µM)	relative viability ([5]; first compound 0.4 µM)	relative viability ([5]; first compound 1.265 µM)
NCI-H2347	0.818	0.492	0.851	0.722	0.503	0.541	0.616	0.352	0.475	0.466	0.555	0.391	0.679	0.658	0.646	0.515	0.534	0.563	0.751	0.607
NCI-H2405	0.373	0.364	0.295	0.319	0.75	0.65	0.66	0.559	0.438	0.355	0.33	0.262	1.03	0.839	0.558	0.878	0.718	0.714	0.573	0.585
NCI-H3122	0.588	0.656	0.588	0.595	0.948	1.06	0.947	0.733	0.409	0.38	0.381	0.348	0.573	0.609	0.539	0.669	0.0821	0.114	0.0793	0.0891
PC-3 [JPC-3]	0.753	0.707	0.685	0.827	0.813	0.81	0.829	0.72	0.484	0.439	0.492	0.483	1.16	–	1.04	1.09	0.67	0.628	0.774	0.698
PC-14	0.654	0.758	0.564	0.439	0.738	0.968	0.572	0.475	0.533	0.488	0.633	0.289	0.241	0.298	0.139	0.236	0.138	0.113	0.138	0.117

— the supplement of paper PMC10307832
